Experimental data reported in patent US6627769B2, “RGD-analog non-peptidic molecules having anti-adhesive, anti-migration and anti-proliferative effects” (Provincia Italiana Della Congregzaione dei Figli …, priority 2001, dated 2003).
Where two headings read alike, the source gives them in different places.

Legend:
[1] = tested on: RASMC proliferation stimulated with PDGF-BB
Method: (§1) For this test rat vascular smooth muscle cells (RASMC) primary cultures, obtained from adult male Wistar Rats, were used according to well known procedures (Facchiano et al., 2000, J. Cell Sci., 113(16), 2855-63).
(§2) Proliferation assay was performed, following standard procedures (Facchiano, et al., 2000, Cell Sci., 113(16), 2855-63), on 6-well plates (1×10^5 cells/plate) allowed to grow for 24 hours in DMEM supplemented with 10% Fetal Calf Serum (FCS) at 37° C. in 5% CO2. Medium was replaced with starvation medium containing either DMEM-0.1% BSA for 24 hours. Subsequently the starvation medium was replaced with fresh medium containing either 0.1% BSA alone or 0.1% BSA with PDGF-BB in the presence or absence of the RGD-analog. Every assay was carried out at different time intervals and cells were harvested and counted with hemacytometer.

[2] = tested on: RASMC proliferation stimulated with PDGF-BB; assay: Proliferation assay (PDGF-BB stimulated RASMC, cell counting); settings: FIG. 3
Method: as §1, §2

[3] = tested on: RASMC migration toward PDGF-BB; assay: Migration assay in modified Boyden chambers toward PDGF-BB; type: cell-based, rat; settings: FIG. 2; PDGF-BB 10 ng/ml as chemoattractant
Method: Rat vascular smooth muscle cells (RASMC) were placed in the upper chamber of the Boyden apparatus. […] Cell migrated on the bottom face of the filters were counted at 400× magnification. Fifteen fields were counted for each filter and the average number of cells/field was calculated. Experiments were performed at least 4 times in duplicate.

| Structure (SMILES) | toxic effects on cells [1] | anti-proliferative effect (inhibition of RASMC proliferation) ([2]; 100 ng/ml, stimulated for 48 hours with PDGF-BB (10 ng/ml)) | toxic effects on cells ([2]; added to cells in the absence of PDGF-BB) | inhibition of RASMC migration toward PDGF-BB gradient [3] |
| --- | --- | --- | --- | --- |
| NC(N)=NCCC[C@H](N)C(=O)NCC(=O)N[C@@H](CC(=O)O)C(=O)N[C@@H](CO)C(=O)O [RGDS] | do not show toxic effects | – | – | – |
| N=C(N)NCCC[C@H](NC(=O)[C@@H](Cc1ccccc1)NC(=O)[C@H](CCCNC(=N)N)NC(=O)CC(=O)N[C@@H](CC(=O)O)C(N)=O)C(N)=O [non-peptidic RGD-analog, H2N—RfRmD—NH2] | – | marked anti-proliferative effect | do not show toxic effects | in a dose-dependent manner |
